# Entries after “also recorded” stand apart in the source; their conditions may differ.
# Assays:
# [1] = tested on: Lin^-/CD34^+/CD38^-/CD123^+ CSCs of KG1a cells; test: Immunophenotypic identification of the leukaemic stem cell compartment in KG1a; assay type: cell-based, human; details: 72 h, sub-micromolar concentrations
# Experimental: KG1a cells were cultured for 72 hours in the presence of a wide range of concentrations of each nucleoside analogue and their respective ProTides. Cells were then harvested and labelled with a cocktail of anti-lineage antibodies (PE-cy7), anti-CD34 (FITC), anti-CD38 (PE) and anti-CD123 (PERCP cy5). The sub-population expressing a leukaemic stem cell (LSC) phenotype were subsequently identified and were expressed as a percentage of all viable cells left in the culture. The percentages of stem cells remaining were then plotted on a dose-response graph and the effects of the ProTides were compared with the parental nucleoside.
# KG1a cells were cultured for 72 hours in the presence of a wide range of concentrations of each compound assayed. Cells were then harvested and labelled with a cocktail of anti-lineage antibodies (PE-cy7), anti-CD34 (FITC), anti-CD38 (PE) and anti-CD123 (PERCP cy5). The sub-population expressing a CSC phenotype were subsequently identified and were expressed as a percentage of all viable cells left in the culture. The percentages of CSCs remaining were then plotted on a dose-response graph and the effects of the NUC-1031 (and its purified isomers) were compared with gemcitabline.
# [2] = ProGem1 dose escalation clinical study: safety and tolerability; assay type: in vivo, human
# Experimental: Although the primary objectives of the dose escalation part of the study were to determine the Recommended Phase II Dose (RP2D) and safety profile, secondary objectives included determining the PK profile, however effective treatment of patients with a range of refractory cancers has also been observed as part of this study.
# NUC-1031 was administered as a 5 to 30 minute intravenous slow bolus injection. • Schedule A: NUC-1031 was administered on days 1, 8, 15 of a 4 weekly Cycle. • Schedule B: NUC-1031 was administered on days 1, 5, 8, 12, 15, 19, of a 4 weekly Cycle.
substance,measurement,setting,value
gemcitabine-[phenyl-benzoxy-L-alaninyl)]-phosphate [NUC-1031],targeting of CSCs compared with Gemcitabine,[1],preferential targeting of CSCs
same,Adverse events (grade) / tolerability,"[2]; Patient 004, breast cancer, 500 mg/m^2 weekly",tolerated treatment well
same,Adverse events (grade) / tolerability,"[2]; Patient 005, ovarian cancer, 500 mg/m^2 weekly",tolerated treatment well
same,Adverse events (grade) / tolerability,"[2]; Patient 007, colorectal cancer, possible linked to splenomegaly at baseline",thrombocytopaenia (G3)
same,Adverse events (grade) / tolerability,"[2]; Patient 008, cancer of unknown primary, 375 mg/m^2 twice weekly, pleural effusion unlikely related to study drug",transient (G3) transaminitis (ALT and AST); also recorded: pleural effusion (G3)
same,Adverse events (grade) / tolerability,"[2]; Patient 010, endometrial cancer, neutropenia in Cycle 1 at 750 mg/m^2",neutropenia (G3); also recorded: transient Grade 3 anaemia
same,Adverse events (grade) / tolerability,"[2]; Patient 011, uterine carcinosarcoma, 375 mg/m^2 twice weekly",transient neutropaenia (G3); also recorded: low haemoglobin (G2)
same,Adverse events (grade) / tolerability,"[2]; Patient 012, cholangiocarcinoma",tolerated treatment well
same,Adverse events (grade) / tolerability,"[2]; Patient 015, cancer of unknown primary, Cycle 1 Day 8",thrombocytopenia (G3); also recorded: lymphopenia (G3); also recorded: neutropenia (G2)
same,Adverse events (grade) / tolerability,"[2]; Patient 017, lung cancer",tolerated NUC-1031 well
same,Adverse events (grade) / tolerability,"[2]; Patient 021, fallopian tube cancer, 625 mg/m^2 weekly",tolerated NUC-1031 well
same,Adverse events (grade) / tolerability,"[2]; Patient 027, ovarian cancer, ALT after Cycle 1 Day 1 at 725 mg/m^2, a DLT",elevated ALT (G3); also recorded: mild neutropenia
same,ALT,"[2]; Patient 027, ovarian cancer, day 7, from 96 at baseline",256
same,Adverse events (grade) / tolerability,"[2]; Patient 030, ovarian cancer, 725 mg/m^2 weekly",tolerated study drug well
same,Adverse events (grade) / tolerability,"[2]; Patient 036, renal carcinoma, 825 mg/m^2 weekly, thrombocytopenia following Cycle 5 Day 1",thrombocytopenia (G3); also recorded: tolerating NUC-1031 much better than their previous regimen
same,Adverse events (grade) / tolerability,"[2]; Patient 037, pancreatic cancer, 1,000, then 900 mg/m^2 weekly","loss of appetite, severe fatigue"
same,Adverse events (grade) / tolerability,"[2]; Patient 038, ovarian cancer, 900 mg/m^2 weekly, main toxicity, days 3 to 4",delayed onset fatigue
same,Adverse events (grade) / tolerability,"[2]; Patient 040, cholangiocarcinoma, source was a stent blocked with tumour and a biliary tract cyst",infection (G3)
same,Adverse events (grade) / tolerability,"[2]; Patient 041, breast cancer, 900 mg/m^2 weekly, fatigue during Cycle 3, neutropenia after Cycle 1 Day 8 and Day 15",fatigue (G3); also recorded: neutropenia
same,Adverse events (grade) / tolerability,"[2]; Patient 042, cholangiocarcinoma, 900 mg/m^2 weekly, days 3-5",delayed onset fatigue (G2)
same,Adverse events (grade) / tolerability,"[2]; Patient 043, ovarian cancer, 900 mg/m^2 weekly, fatigue on days 4 and 5",delayed onset fatigue (G2); also recorded: Leg oedema developed to G3
same,Adverse events (grade) / tolerability,"[2]; Patient 044, lung cancer, 900, then 825 mg/m^2 weekly",G3 lung infection; also recorded: thrombocytopenia
same,Adverse events (grade) / tolerability,"[2]; Patient 046, adrenal carcinoma, all G3 events in Cycle 1 at 1,000 mg/m^2, fatigue (G3) and neutropenia (G2) following Cycle 8 D1","delayed onset fatigue, nausea and vomiting (all G3); also recorded: neutropenia (G2)"
same,Adverse events (grade) / tolerability,"[2]; Patient 048, ovarian cancer, ALT, AST, neutropaenia (G2), ALP following Cycle 1 Day 1 at 1,000 mg/m^2, neutropenia (G3) in Cycle 4","ALT, (G3, a DLT); also recorded: AST and neutropaenia (G2); also recorded: ALP (G1); also recorded: neutropenia (G3); also recorded: diarrhoea following each dose"
same,Adverse events (grade) / tolerability,"[2]; Patient 050 (202), oesophageal cancer, following Cycle 1 Day 1 at 900 mg/m^2","ALT and fatigue, both G3"
same,Adverse events (grade) / tolerability,"[2]; Patient 051 (203), anal cancer, 900 mg/m^2 weekly",tolerated treatment well
same,Adverse events (grade) / tolerability,"[2]; Patient 055 (207), ovarian cancer, 825 mg/m^2 weekly",nausea and vomiting post chemotherapy
same,Adverse events (grade) / tolerability,"[2]; Patient 057 (209), ovarian cancer, Cycle 1 Day 15, 900 mg/m^2 weekly",anaemia and ascites both G3
same,Adverse events (grade) / tolerability,"[2]; Patient 058 (210), lung cancer, Cycle 1 at 825 mg/m^2, may be partly due to a congenital liver condition","G3 transaminitis (ALT), a DLT"
same,Adverse events (grade) / tolerability,"[2]; Patient 059 (211), cervical cancer, thrombocytopenia in Cycle 1 at 825 mg/m^2, fatigue during Cycle 3",thrombocytopenia (G3); also recorded: fatigue (G3)
same,Adverse events (grade) / tolerability,"[2]; Patient 060 (212), pancreatic cancer, 825 mg/m^2 weekly, required new stent","ALP, AST, ALT, all G3"
same,Adverse events (grade) / tolerability,"[2]; Patient 061 (213), colorectal cancer, 825 mg/m^2 weekly",no nausea or vomiting during treatment
same,Adverse events (grade) / tolerability,"[2]; Patient 063 (215), ovarian cancer, fatigue on Cycle 3",fatigue (G3); also recorded: anaemia and neutropenia
same,Adverse events (grade) / tolerability,"[2]; Patient 067 (219), osteosarcoma, 825 mg/m^2 weekly, neutropenia towards the end of each Cycle",neutropenia G2; also recorded: Tolerated study drug well
same,Adverse events (grade) / tolerability,"[2]; Patient 069 (221), colorectal cancer, G4/G3 during Cycle 3 at 825 mg/m^2, G3 following Cycle 4 D1 at 750, G2 at C5 D8","neutropenia (G4); also recorded: neutropenia and leukopenia, G3; also recorded: neutropenia and leukopenia, G2"

# From patent publication US20230226092A1, “CANCER […] ON G[…]” (NuCana plc, priority 2015, published 2023)
